# From patent publication US20230167073A1 (Teijin Pharma Limited, priority 2020, published 2023)
# Target: T1, Human TRPC6 (Homo sapiens, UniProt Q9Y210)
# T1 construct: expressed in transfected cells
# T1 sequence (Q9Y210 1-931): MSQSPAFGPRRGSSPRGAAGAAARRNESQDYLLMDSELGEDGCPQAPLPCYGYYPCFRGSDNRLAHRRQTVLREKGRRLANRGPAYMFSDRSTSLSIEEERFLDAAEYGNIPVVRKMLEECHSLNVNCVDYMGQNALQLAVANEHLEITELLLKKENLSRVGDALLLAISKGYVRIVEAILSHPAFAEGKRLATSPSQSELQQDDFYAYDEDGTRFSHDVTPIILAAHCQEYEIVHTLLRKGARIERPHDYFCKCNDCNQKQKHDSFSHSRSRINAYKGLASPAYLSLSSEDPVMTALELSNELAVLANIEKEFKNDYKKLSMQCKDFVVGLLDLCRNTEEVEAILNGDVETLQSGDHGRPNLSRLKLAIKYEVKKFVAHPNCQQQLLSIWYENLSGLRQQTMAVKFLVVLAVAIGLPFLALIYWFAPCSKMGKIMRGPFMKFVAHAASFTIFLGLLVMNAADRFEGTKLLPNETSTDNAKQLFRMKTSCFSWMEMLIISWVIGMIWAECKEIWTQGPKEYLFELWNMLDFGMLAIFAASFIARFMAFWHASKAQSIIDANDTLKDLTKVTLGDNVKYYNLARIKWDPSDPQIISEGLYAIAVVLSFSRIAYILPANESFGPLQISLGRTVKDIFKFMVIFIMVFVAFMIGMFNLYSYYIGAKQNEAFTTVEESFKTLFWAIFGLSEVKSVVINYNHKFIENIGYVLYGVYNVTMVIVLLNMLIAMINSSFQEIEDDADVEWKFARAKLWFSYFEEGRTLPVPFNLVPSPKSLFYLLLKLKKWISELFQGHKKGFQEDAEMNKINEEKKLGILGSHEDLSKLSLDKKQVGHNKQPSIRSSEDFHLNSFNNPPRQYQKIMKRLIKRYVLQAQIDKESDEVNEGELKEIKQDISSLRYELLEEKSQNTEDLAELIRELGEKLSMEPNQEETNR
# Test: Evaluation of TRPC6 channel inhibitory activity (1), FLIPR Calcium 5 Assay Kit, OAG stimulation (Compound Nos. 1-1293)
# Format: cell-based
# Settings: Human TRPC6 stably-expressing cells, OAG 30 μM, FLIPR Calcium 5 Assay Kit; read-out: Inhibitory activity (pIC50 class) (converted)
# Protocol: Evaluation of TRPC6 Channel Inhibitory Activity (1) (Compound Nos. 1-1293)
# In order to investigate TRPC6 channel inhibitory activity of the compounds, evaluation was conducted using FLIPR® Calcium 5 Assay Kit (Molecular Devices) in accordance with the following procedure. Human TRPC6 stably-expressing cells were seeded in a 384-well black clear bottom plate at a density of 5×10^3/well and cultured in an incubator at 37° C. 5% CO2 for 24 hours. Thereafter, 25 μL of a Non Wash Dye Solution, prepared using Component A, 20 mM HEPES-HBSS and 250 mM probenecid, all of which are included in the kit, was added to each well, and the plate was incubated for 30 minutes. A volume of 12.5 μL of a compound solution was added into each well while the fluorescence was measured with FLIPR tetra. After 20 minutes, 12.5 μL of a 1-oleoyl-2-acetyl glycerol (OAG) solution was added at a final concentration of 30 μM. The difference between the minimum fluorescence intensity before the addition of the compound and the maximum fluorescence intensity after the addition of OAG was defined as a signal. An inhibition rate was calculated, assuming the average signal of wells without the compound as the inhibition rate of 0% and the average signal of wells without the compound and OAG as the inhibition rate of 100%. The calculated inhibition rate was analyzed by a four-parameter logistic regression to quantify the inhibition rate in the logarithm of the inverse of the effective concentration which gives a 50% inhibition rate (pIC50). The intensity was expressed by the following symbols (+, ++, +++).
row,SMILES,IC50 [nM]
1,"Cc1nc(Oc2cc(C#N)ccc2-c2ccc(CCN)cc2)cc(N2CC(F)(F)C(F)(F)C2)n1 [Compound 26, 4-[4-(2-aminoethyl)phenyl]-3-[2-methyl-6-(3,3,4,4-tetrafluoropyrrolidin-1-yl)pyrimidin-4-yl]oxybenzonitrile]",< 10
2,"Cc1nc(Oc2cc(C#N)ccc2-c2ccc(CCN)cc2)cc(N2CCCCCC2)n1 [Compound 27, 4-[4-(2-aminoethyl)phenyl]-3-[6-(azepan-1-yl)-2-methylpyrimidin-4-yl]oxybenzonitrile]",10 to 1000
3,"Cc1nc(Oc2cc(C#N)ccc2-c2ccc(CCN)cc2)cc(-c2cccn2C)n1 [Compound 28, 4-[4-(2-aminoethyl)phenyl]-3-[2-methyl-6-(1-methylpyrrol-2-yl)pyrimidin-4-yl]oxybenzonitrile]",10 to 1000
4,"Cc1nc(Oc2cc(C#N)ccc2-c2ccc(CCN)cc2)cc(-c2ccn(C)c2)n1 [Compound 29, 4-[4-(2-aminoethyl)phenyl]-3-[2-methyl-6-(1-methylpyrrol-3-yl)pyrimidin-4-yl]oxybenzonitrile]",10 to 1000
5,"Cc1nc(Oc2cc(C#N)ccc2-c2ccc(CCN)cc2)cc(-c2cscn2)n1 [Compound 30, 4-[4-(2-aminoethyl)phenyl]-3-[2-methyl-6-(1,3-thiazol-4-yl)pyrimidin-4-yl]oxybenzonitrile]",< 10
6,"Cc1nc(Oc2cc(C#N)ccc2-c2ccc(CCN)cc2)cc(N2CCCOCC2)n1 [Compound 31, 4-[4-(2-aminoethyl)phenyl]-3-[2-methyl-6-(1,4-oxazepan-4-yl)pyrimidin-4-yl]oxybenzonitrile]",10 to 1000
7,"Cc1nc(Oc2cc(C#N)ccc2-c2ccc(CCN)cc2)cc(-c2ccsc2)n1 [Compound 32, 4-[4-(2-aminoethyl)phenyl]-3-(2-methyl-6-thiophen-3-ylpyrimidin-4-yl)oxybenzonitrile]",< 10
8,"Cc1nc(Oc2cc(C#N)ccc2-c2ccc(CCN)cc2)cc(-c2cccs2)n1 [Compound 33, 4-[4-(2-aminoethyl)phenyl]-3-(2-methyl-6-thiophen-2-ylpyrimidin-4-yl)oxybenzonitrile]",< 10
9,"Cc1nc(Oc2cc(C#N)ccc2-c2ccc(CCN)cc2)cc(-c2ncco2)n1 [Compound 34, 4-[4-(2-aminoethyl)phenyl]-3-[2-methyl-6-(1,3-oxazol-2-yl)pyrimidin-4-yl]oxybenzonitrile]",10 to 1000
10,"Cc1nc(OCCC(F)(F)F)cc(Oc2cc(C#N)ccc2-c2ccc(CCN)cc2)n1 [Compound 37, 4-[4-(2-aminoethyl)phenyl]-3-[2-methyl-6-(3,3,3-trifluoropropoxy)pyrimidin-4-yl]oxybenzonitrile]",> 1000
11,"CCCCOc1cc(Oc2cc(C#N)ccc2-c2ccc(CCN)cc2)nc(C)n1 [Compound 38, 4-[4-(2-aminoethyl)phenyl]-3-(6-butoxy-2-methylpyrimidin-4-yl)oxybenzonitrile]",> 1000
12,"Cc1nc(Oc2cc(C#N)ccc2-c2ccc(CCN)cc2)cc(-c2nccs2)n1 [Compound 40, 4-[4-(2-aminoethyl)phenyl]-3-[2-methyl-6-(1,3-thiazol-2-yl)pyrimidin-4-yl]oxybenzonitrile]",> 1000
13,"Cc1nc(OCCC(C)C)cc(Oc2cc(C#N)ccc2-c2ccc(CCN)cc2)n1 [Compound 41, 4-[4-(2-aminoethyl)phenyl]-3-[2-methyl-6-(3-methylbutoxy)pyrimidin-4-yl]oxybenzonitrile]",> 1000
14,"Cc1nc(OCCC(C)(C)C)cc(Oc2cc(C#N)ccc2-c2ccc(CCN)cc2)n1 [Compound 42, 4-[4-(2-aminoethyl)phenyl]-3-[6-(3,3-dimethylbutoxy)-2-methylpyrimidin-4-yl]oxybenzonitrile]",> 1000
15,"N#Cc1ccc(-c2ccc(CCN)cc2)c(Oc2cnnc(N3CCOCC3)c2)c1 [Compound 50, 4-[4-(2-aminoethyl)phenyl]-3-(6-morpholin-4-ylpyridazin-4-yl)oxybenzonitrile]",< 10
16,"N#Cc1ccc(-c2ccc(C(O)CN)cc2)c(Oc2cnnc(N3CCOCC3)c2)c1 (centres unmarked) [Compound 51, 4-[4-(2-amino-1-hydroxyethyl)phenyl]-3-(6-morpholin-4-ylpyridazin-4-yl)oxybenzonitrile]",> 1000
17,"Cc1nc(Oc2cc(C#N)ccc2-c2ccc(C3CNC3)cc2)cc(N2CCOCC2)n1 [Compound 52, 4-[4-(azetidin-3-yl)phenyl]-3-(2-methyl-6-morpholin-4-ylpyrimidin-4-yl)oxybenzonitrile]",10 to 1000
18,"Cc1nc(Oc2cc(C#N)ccc2-c2ccc(C3CCNC3)cc2)cc(N2CCOCC2)n1 (centres unmarked) [Compound 53, 3-(2-methyl-6-morpholin-4-ylpyrimidin-4-yl)oxy-4-(4-pyrrolidin-3-ylphenyl)benzonitrile]",10 to 1000
19,"CCOC(=O)CCNCCc1ccc(-c2ccc(C#N)cc2Oc2cc(N3CCOCC3)nc(C)n2)cc1 [Compound 54, ethyl 3-[2-[4-[4-cyano-2-(2-methyl-6-morpholin-4-ylpyrimidin-4-yl)oxyphenyl]phenyl]ethylamino] propanoate]",> 1000

# Results, then the molecule that gave them:
row,IC50 [nM],SMILES
1,10 to 1000,"Cc1nc(OCC(F)(F)F)cc(Oc2cc(C#N)ccc2-c2ccc(CCN)cc2)n1 [Compound 35, 4-[4-(2-aminoethyl)phenyl]-3-[2-methyl-6-(2,2,2-trifluoroethoxy)pyrimidin-4-yl]oxybenzonitrile]"
2,10 to 1000,"Cc1nc(OCCCF)cc(Oc2cc(C#N)ccc2-c2ccc(CCN)cc2)n1 [Compound 36, 4-[4-(2-aminoethyl)phenyl]-3-[6-(3-fluoropropoxy)-2-methylpyrimidin-4-yl]oxybenzonitrile]"
3,> 1000,"Cc1nc(OCC2CCCCC2)cc(Oc2cc(C#N)ccc2-c2ccc(CCN)cc2)n1 [Compound 39, 4-[4-(2-aminoethyl)phenyl]-3-[6-(cyclohexylmethoxy)-2-methylpyrimidin-4-yl]oxybenzonitrile]"
4,10 to 1000,"Cc1nc(OCC2CCC2)cc(Oc2cc(C#N)ccc2-c2ccc(CCN)cc2)n1 [Compound 43, 4-[4-(2-aminoethyl)phenyl]-3-[6-(cyclobutylmethoxy)-2-methylpyrimidin-4-yl]oxybenzonitrile]"
5,> 1000,"Cc1nc(OCC2CCCC2)cc(Oc2cc(C#N)ccc2-c2ccc(CCN)cc2)n1 [Compound 44, 4-[4-(2-aminoethyl)phenyl]-3-[6-(cyclopentylmethoxy)-2-methylpyrimidin-4-yl]oxybenzonitrile]"
6,10 to 1000,"Cc1nc(Oc2cc(C#N)ccc2-c2ccc(CCN)cc2)cc(OC2CCCC2)n1 [Compound 45, 4-[4-(2-aminoethyl)phenyl]-3-(6-cyclopentyloxy-2-methylpyrimidin-4-yl)oxybenzonitrile]"
7,< 10,"Cc1nc(Oc2cc(C#N)ccc2-c2ccc(CCN)cc2)cc(C2CCCC2)n1 [Compound 46, 4-[4-(2-aminoethyl)phenyl]-3-(6-cyclopentyl-2-methylpyrimidin-4-yl)oxybenzonitrile]"
8,10 to 1000,"Cc1nc(OCC(C)(C)C)cc(Oc2cc(C#N)ccc2-c2ccc(CCN)cc2)n1 [Compound 47, 4-[4-(2-Aminoethyl)phenyl]-3-[6-(2,2-dimethylpropoxy)-2-methylpyrimidin-4-yl]oxybenzonitrile]"
9,10 to 1000,"COCCOc1cc(Oc2cc(C#N)ccc2-c2ccc(CCN)cc2)nc(C)n1 [Compound 48, 4-[4-(2-aminoethyl)phenyl]-3-[6-(2-methoxyethoxy)-2-methylpyrimidin-4-yl]oxybenzonitrile]"
10,10 to 1000,"Cc1nc(OCC2(C)CC2)cc(Oc2cc(C#N)ccc2-c2ccc(CCN)cc2)n1 [Compound 49, 4-[4-(2-aminoethyl)phenyl]-3-[2-methyl-6-[(1-methylcyclopropyl)methoxy]pyrimidin-4-yl]oxybenzonitrile]"
